Results from US20230201025A1, “PROCESS FOR FABRICATING A DENTAL APPLIANCE AND ACCOMPANYING USE CASES” (Bottmedical AG, priority 2020, published 2023).

Legend:
Streptococcus mutans = test: calorimetric measurement of suppression of bacterial growth (S. mutans); type: cell-based; settings: single essential oil component at 0.1% in BHI
Procedure: (§1) Finally, additional calorimetric experiments were performed to measure the capability of different agents of suppressing the growth of bacteria such as Streptococcus mutans and Streptococcus mitis. The different agents 7 were applied as a solution containing a single essential oil component at a concentration of 0.1% in BHI. As figure of merits, the lag phase, defined as the postponement in time of the growth of the bacteria and measured in hours, and the growth rate (increase in number of bacteria/time), measured in J/h, of the Streptococcus populations were determined as follows: […]

Streptococcus mitis = test: calorimetric measurement of suppression of bacterial growth (S. mitis); type: cell-based; settings: single essential oil component at 0.1% in BHI
Procedure: as §1

| Structure (SMILES) | growth rate (J/h) of S. mutans (Streptococcus mutans) [J/h] | lag phase (h) of S. mutans growth (Streptococcus mutans) [h] | growth rate (J/h) of S. mitis (Streptococcus mitis) [J/h] | lag phase (h) of S. mitis growth (Streptococcus mitis) [h] | growth rate (J/h) of S. mutans (Streptococcus mutans; listed as cinnamaldehyde) |
| --- | --- | --- | --- | --- | --- |
| CC12CCC(CC1)C(C)(C)O2 [Eucalyptol] | 1.3 | 5 | 0.14 | 2 | – |
| C=C(C)[C@H]1CC=C(C)CC1 [Limonene] | – | – | 0.11 | 3 | – |
| O=CC=Cc1ccccc1 [cinnam aldehyde, cinnamaldehyde] | 0 | >24 | 0.15 | 6.2 | without any measurable growth |
| COC(=O)c1ccccc1O [methyl salicylate] | 1.2 | 5 | 0.4 | 23 | – |
| C/C=C/c1ccc(OC)cc1 [trans-anethole] | 0.03 | >24 | 0.13 | 6.4 | – |
